Experimental data: PubChem BioAssay AID493013 (Southern Research Specialized Biocontainment Screening …, 2011)
Active and inactive are the calls of the source. The rule behind the calls is not given here.

Legend:
[1] = mammalian cell cytotoxicity, dose response, cytotoxicity control, secondary assay, set 2 (AID 493013); conditions: mammalian cell line viability, cytotoxicity counter-screen; at 100 µM (top of the series)
[2] = system: mammalian cell line viability, cytotoxicity counter-screen; assay: as above

Row | Compound | viability [1] | CC50 [2] [µM]
1 | Cc1ccc(OCC(=O)Nc2nnn(C)n2)c(C)c1 | 85.2% (inactive) | 
2 | O=C(Nc1nc2ccccc2[nH]1)c1cc2cc(Br)ccc2o1 |  | 11.5
3 | O=C(OC(C(=O)Nc1ccc(Cl)cc1C(F)(F)F)c1ccccc1)C1=COCCO1 (centres undefined) | 72.7% (inactive) | 
4 | Cc1ccccc1OCC(=O)Nc1nnn(C)n1 | 87.8% (inactive) | 
5 | O=C(COC(=O)C1=COCCO1)Nc1ccc2c(c1)OCO2 | 89% (inactive) | 
6 | COc1ccc2c(c1)c(C(C)=O)c(C)n2-c1ccccc1 | 92.5% (inactive) | 
7 | COc1ccc2nc(NC(=O)COc3ccccc3C(C)C)sc2c1 | 93.8% (inactive) | 
8 | O=C(Nc1ccccc1)Nc1csc2ccccc12 |  | 31.9
9 | Cc1cc2cc(Cl)ccc2[nH]1 | 84.1% (inactive) | 
10 | CC(=O)c1c(C)n(-c2cccc(Cl)c2)c2ccc(O)cc12 | 78.9% (inactive) | 
11 | Oc1ccc2[nH]ccc2c1 | 101% (inactive) | 
12 | N/C(=N\c1nc2ccccc2o1)NC(=O)c1ccccc1Br | 84.6% (inactive) | 
13 | COc1cccc(-c2ccc(-c3noc(-c4ccccc4F)n3)c(OC)n2)c1 |  | 46.7
14 | S=C(Nc1ccccc1)Nc1ccc(Cl)cn1 | 97.2% (inactive) | 
15 | Cc1ccccc1C(=O)Nc1nc2ccccc2[nH]1 |  | 71.4
16 | COc1ccccc1C(=O)N/C(N)=N/c1nc2ccccc2o1 |  | 16.6
17 | Cc1ccc(OCC(=O)Nc2nc3ccc(F)cc3s2)cc1 | 84.2% (inactive) | 
18 | CCOc1ccc2c(c1)c(C(C)=O)c(C)n2Cc1ccco1 | 94.5% (inactive) | 
19 | COC(=O)c1c(C)n(-c2ccccc2)c2ccc(O)cc12 |  | 61.3
20 | O=C(COc1ccccc1Cl)Nc1nc2ccccc2s1 | 73.1% (inactive) | 
21 | COc1ccc2nc(NC(=O)COc3ccc(Cl)cc3)sc2c1 | 92.1% (inactive) | 
22 | Cc1cc2ccccc2[nH]1 | 100% (inactive) | 
23 | CCOc1ccc2nc(NC(=O)Cc3ccc(OC)cc3)sc2c1 | 83.6% (inactive) | 
24 | CCOC(=O)c1cnc2cc(-c3ccc(C(C)(C)C)cc3)nn2c1N |  | 74.6
25 | OCCCc1cn(-c2ccccc2)c2ccccc12 |  | 90

Row | Compound | viability [1] | CC50 [2] [µM]
26 | CC(=O)Nc1ccc2nc(NC(=O)COc3ccccc3)sc2c1 |  | 49.8
27 | COc1ccc2nc(NC(=O)COc3c(C)cc(C)cc3C)sc2c1 | 79.6% (inactive) | 
28 | Cc1cc(C)c(OCC(=O)Nc2nc3ccccc3[nH]2)c(C)c1 | 85.7% (inactive) | 
29 | CCOc1ccc2nc(NC(=O)C(C)Oc3ccccc3F)sc2c1 (centres undefined) |  | 67.7
30 | N/C(=N\c1nc2ccccc2o1)NC(=O)c1ccc(F)cc1 |  | 12.5
31 | COC(=O)c1sc(-c2ccc(C(C)(C)C)cc2)cc1NC(=O)CCC(=O)O |  | 64.7
32 | COc1ccc2nc(NC(=O)c3oc4ccccc4c3C)sc2c1 | 80.8% (inactive) | 
33 | O=C(Cc1csc(-c2ccccc2F)n1)Nc1nc2ccccc2[nH]1 | 88.2% (inactive) | 
34 | CC(=O)c1c(C)n(-c2ccccc2C)c2ccc(O)cc12 | 82.3% (inactive) | 
35 | Cc1ccccc1OCC(=O)Nc1ccccc1N1CCCCC1 |  | 51
36 | COc1cccc(NC(=O)C2CC2)c1 | 102% (inactive) | 
37 | Cc1ccc(OC(C)C(=O)Nc2ncccn2)c(C)c1 (centres undefined) | 86.1% (inactive) | 
38 | CCOc1ccc2nc(NC(=O)COc3ccc(Cl)c(C)c3)sc2c1 |  | 38.6
39 | CCOc1ccc(NC(=O)COc2ccc(C)cc2C)cc1 | 78.7% (inactive) | 
40 | O=C(COC(=O)C1CC1)c1c[nH]c2ccccc12 | 95.5% (inactive) | 
41 | Cc1ccc(OCC(=O)Nc2nc3c(Cl)cccc3s2)cc1 | 97% (inactive) | 
42 | O=C(CSc1n[nH]c(=O)n1C1CC1)c1ccc2c(c1)OCCO2 | 94.5% (inactive) | 
43 | Cc1onc(-c2c(Cl)cccc2Cl)c1/C(N)=N/OC(=O)C1CC1 | 102% (inactive) | 
44 | N/C(=N\c1nc2ccccc2o1)NC(=O)COc1ccc2ccccc2c1 |  | 37.3
45 | O=C(COc1ccccc1)Nc1nc2ccccc2s1 |  | 66.7
46 | CCC(CC)c1nnc(NC(=O)c2ccc(N3CCCCC3)c([N+](=O)[O-])c2)s1 |  | 41.3
47 | COc1cccc(NC(=S)Nc2cc(C)cc(C)n2)c1 | 89.5% (inactive) | 
48 | COc1ccc2nc(NC(=O)C(C)Oc3ccccc3)sc2c1 (centres undefined) |  | 87.7
49 | CCCOc1ccc2c(c1)c(C(C)=O)c(C)n2-c1ccccc1 | 97.1% (inactive) | 
50 | CCOc1ccc2nc(NC(=O)COc3ccc(OC)cc3)sc2c1 | 102% (inactive) | 

Row | Compound | viability [1] | CC50 [2] [µM]
51 | c1ccc(OCc2nnc(-c3ccccc3)o2)cc1 | 72.5% (inactive) | 
52 | Cc1ccccc1OCC(=O)Nc1ncn[nH]1 | 80.5% (inactive) | 
53 | Cc1cccc(C)c1OCC(=O)Nc1nc2ccccc2s1 | 84.5% (inactive) | 
54 | Cc1ccc(OCC(=O)Nc2ccc(Cl)cc2)c(C)c1 | 93.6% (inactive) | 
55 | O=C(COc1ccc(Cl)cc1)Nc1nc2ccc(F)cc2s1 |  | 57.2
56 | CCOc1ccc2nc(NC(=O)COc3ccc(F)cc3)sc2c1 | 96.4% (inactive) | 
57 | Cc1ccccc1OCC(=O)Nc1ccccc1-c1ccccc1 |  | 77
58 | O=C(O)CCC(=O)Nc1nc2ccccc2s1 | 98.8% (inactive) | 
59 | O=C(CC12CC3CC(CC(C3)C1)C2)NCc1ccc(F)cc1 | 86.5% (inactive) | 
60 | O=C(Nc1nc2ccccc2[nH]1)c1ccc(Cl)c(Cl)c1 |  | 83.6
61 | Cc1cc2cc(O)ccc2[nH]1 | 105% (inactive) | 
62 | COC(=O)c1ccc2nc(NC(=O)COc3ccccc3)sc2c1 | 88.8% (inactive) | 
63 | O=C(CCS(=O)(=O)c1ccc(F)cc1)Nc1nnc(-c2cccs2)o1 |  | 41.6
64 | CC(=O)Nc1ccc2nc(NC(=O)Cc3ccccc3)sc2c1 | 82.2% (inactive) | 
65 | Cc1ccccc1OCC(=O)Nc1ncccn1 | 100% (inactive) | 
66 | CC(=O)c1c(C)n(-c2ccccc2)c2ccc(O)cc12 | 80.4% (inactive) | 
67 | O=C(Cc1ccccc1Cl)Nc1nc2ccccc2[nH]1 | 84.9% (inactive) | 
68 | COc1ccc(Cl)cc1C(=O)Nc1nc2ccccc2[nH]1 |  | 25.4
69 | CCOc1ccc2nc(NC(=O)C3(c4ccccc4)CCCC3)sc2c1 |  | 62.3
70 | CC(C)Cn1c2c(c(O)c(C(=O)Nc3nccs3)c1=O)CCCC2 |  | 78
71 | COc1ccc2nc(NC(=O)COc3ccc(C)cc3)sc2c1 |  | 29.8
72 | CC(C)(Oc1ccc(Cl)cc1)C(=O)Nc1nc2ccccc2s1 |  | 72.3
73 | COc1ccc2nc(NC(=O)COc3ccccc3)sc2c1 | 83.9% (inactive) | 
74 | CCOc1ccc2c(c1)c(C(C)=O)c(C)n2-c1ccccc1 |  | 94.5
75 | O=C(COc1cccc2ccccc12)Nc1nc2ccccc2s1 |  | 77.7

Row | Compound | viability [1] | CC50 [2] [µM]
76 | CCCN1CC(O)=C(c2nc3ccccc3s2)C1=N |  | 90.5
77 | CCOc1ccc2nc(NC(=O)COc3ccccc3)sc2c1 | 76.4% (inactive) | 
78 | Cc1cc(C)c(OCC(=O)Nc2nc3ccccc3s2)c(Cl)c1 | 83.2% (inactive) | 
79 | O=C(COc1ccc2ccccc2c1)Nc1nc2ccccc2[nH]1 | 91.9% (inactive) | 
80 | Cc1ccccc1OCC(=O)Nc1noc(-c2ccccc2)n1 | 96.4% (inactive) | 
81 | O=C(COc1ccc2c3c(c(=O)oc2c1)CCC3)Nc1nc2ccccc2[nH]1 |  | 23.4
82 | COc1ccc(C(=O)Nc2ccc3nc(N4CCCCC4)cc(C)c3c2)c(OC)c1 | 92% (inactive) | 
83 | CCOc1ccc2c(c1)c(C(C)=O)c(C)n2-c1ccccc1Cl |  | 47.7
84 | Cc1cc(C)c(OCC(=O)Nc2nc3ccc(C)cc3s2)c(C)c1 | 87.7% (inactive) | 
85 | Cc1ccc2sc(NC(=O)COc3ccccc3)nc2c1C |  | 20.2
86 | Cc1cccnc1NC(=S)NC(=O)c1cncc(Br)c1 | 106% (inactive) | 
87 | CC(=O)c1c(C)n(-c2ccccc2)c2ccc(OC(C)C)cc12 | 79.6% (inactive) | 
88 | c1ccc(Nc2ncnc3c2oc2ccccc23)cc1 |  | 76.9
89 | CCc1ccc2nc(/N=C(\N)NC(=O)c3ccccc3)nc(C)c2c1 | 81.6% (inactive) | 
90 | Cc1ccc2oc(/N=C(\N)NC(=O)c3ccccc3)nc2c1 |  | 5.79
91 | Cc1ccc(OCC(=O)Nc2cccc3c(NC(=O)COc4ccc(C)cc4C)cccc23)c(C)c1 | 96.3% (inactive) | 
92 | CN(NC(=O)c1c(Cl)cccc1Cl)c1cccc(Cl)n1 | 79.9% (inactive) | 
93 | Cc1cc2cc(F)ccc2[nH]1 | 95% (inactive) | 
94 | N/C(=N\c1nc2ccccc2o1)NC(=O)c1ccccc1F | 96.4% (inactive) | 
95 | Cc1ccc(OCC(=O)Nc2ccc3c4c(cccc24)CC3)c(C)c1 |  | 27.2
96 | Cc1c(OCc2ccc(C(=O)O)cc2)ccc2c(-c3ccccc3)cc(=O)oc12 |  | 51.8
97 | N/C(=N\c1nc2ccccc2o1)NC(=O)c1ccccc1 |  | 7.4
98 | N/C(=N\c1nc2cc(Cl)ccc2o1)NC(=O)c1ccccc1 |  | 14.5
99 | CC(Oc1ccc(Cl)cc1)C(=O)Nc1nc2ccccc2s1 (centres undefined) |  | 46.4
